Test results taken from patent US20250115654A1, “PHARMACEUTICAL COMPOSITION OF GLP-1 RECEPTOR AND GIP RECEPTOR DUAL AGONIST, AND USE THEREOF” (FUJIAN SHENGDI PHARMACEUTICAL CO., LTD., priority 2021, published 2025).
Marks after values point to notes of the source that are not given here. Numbered stars: 1 amine (or outer) side, 2 acyl side, 3 side chain; on linkers, the order of the positions; unused ones are H or OH. Square brackets hold non-standard residues; d marks the D form. Side chains are listed from the residue outwards. Peptide text beside a SMILES is read from it. * marks the point of attachment. C20 diacid = O=C(O)CCCCCCCCCCCCCCCCCCC(=O)*; γGlu = O=C(O)[C@H](CCC(=O)[*:2])N[*:1]; AEEA = NCCOCCOCC(=O)O; Aib = CC(C)(N)C(=O)O

What was measured:
db/db mice = assay: Glucose metabolism level of db/db mice (fasting and random blood glucose, glycated hemoglobin); type: in vivo, C57BL/KsJ-db/db mice; details: for Glycated hemoglobin (%, mean ± SD): end of experiment day 28
Procedure: Each administration group had 10 db/db mice. According to the experimental design, tail vein blood was collected by needle pricking on days 0, 7, 14, 21, and 28 and determined for fasting blood glucose levels with a glucometer and glucose dipsticks, and the mice were fasted 6 h prior to the blood collection at each time point. Tail vein blood was collected by needle pricking on days 3, 10, 17, 24, and 27 and randomly determined for blood glucose levels with a glucometer. Finally, at the end of the experiment on day 28, all the animals in the administration groups were subjected to 2-5% isoflurane inhalation anesthesia, and 100 μL of whole blood was collected through the orbit of each mouse using an EDTA-K2 anticoagulation tube and used for the determination of glycated hemoglobin.

[1] = system: diet-induced-obesity mice; assay: Body weight of diet-induced-obesity mice, subcutaneous administration once every 3 days; type: in vivo, C57BL/6 mice; details: 3 nmol/kg

Structure (SMILES): CC[C@H](C)[C@H](NC(=O)[C@H](CCCCN)NC(=O)[C@H](CCC(=O)O)NC(=O)[C@H](CCCCNC(=O)COCCOCCNC(=O)COCCOCCNC(=O)CC[C@H](NC(=O)CCCCCCCCCCCCCCCCCCC(=O)O)C(=O)O)NC(=O)[C@H](Cc1ccc(O)cc1)NC(=O)[C@@H](NC(=O)[C@H](CO)NC(=O)[C@H](Cc1ccc(O)cc1)NC(=O)[C@H](CC(=O)O)NC(=O)[C@H](CO)NC(=O)[C@@H](NC(=O)[C@H](Cc1ccccc1)NC(=O)[C@@H](NC(=O)CNC(=O)[C@H](CCC(=O)O)NC(=O)C(C)(C)NC(=O)[C@@H](N)Cc1ccc(O)cc1)[C@@H](C)O)[C@@H](C)O)[C@@H](C)CC)C(=O)N[C@@H](C)C(=O)N[C@@H](C)C(=O)N[C@@H](CCC(N)=O)C(=O)N[C@@H](CCC(=O)O)C(=O)N[C@@H](Cc1ccccc1)C(=O)N[C@H](C(=O)N[C@@H](CC(N)=O)C(=O)N[C@@H](Cc1c[nH]c2ccccc12)C(=O)N[C@@H](CC(C)C)C(=O)N[C@@H](CC(C)C)C(=O)N[C@@H](C)C(=O)NCC(=O)NCC(=O)N1CCC[C@H]1C(=O)N[C@@H](CO)C(=O)N[C@@H](CO)C(=O)NCC(=O)N[C@@H](C)C(=O)N1CCC[C@H]1C(=O)N1CCC[C@H]1C(=O)N1CCC[C@H]1C(=O)N[C@@H](CO)C(N)=O)C(C)C [Compound 18#] (H-Y[Aib]EGTFTSDYSIYK([AEEA-AEEA-γGlu-C20 diacid])EKIAAQEFVNWLLAGGPSSGAPPPS-NH2)
- Concentration of fasting blood glucose (mMol/L, mean ± SD) (db/db mice; 10 nmol/kg, Day 0): 14.77 ± 1.30 mmol/L
- Concentration of random blood glucose (mMol/L, mean ± SD) (db/db mice; 10 nmol/kg, Day 0): 20.42 ± 1.56 mmol/L
- Concentration of fasting blood glucose (mMol/L, mean ± SD) (db/db mice; 10 nmol/kg, Day 7): 6.05 ± 0.42 mmol/L
- Concentration of random blood glucose (mMol/L, mean ± SD) (db/db mice; 10 nmol/kg, Day 10): 20.66 ± 1.48 mmol/L
- Concentration of fasting blood glucose (mMol/L, mean ± SD) (db/db mice; 10 nmol/kg, Day 14): 6.30 ± 0.46 mmol/L
- Concentration of random blood glucose (mMol/L, mean ± SD) (db/db mice; 10 nmol/kg, Day 17): 18.91 ± 1.33 mmol/L
- Concentration of fasting blood glucose (mMol/L, mean ± SD) (db/db mice; 10 nmol/kg, Day 21): 7.89 ± 0.81 mmol/L
- Concentration of random blood glucose (mMol/L, mean ± SD) (db/db mice; 10 nmol/kg, Day 24): 21.17 ± 2.07 mmol/L
- Concentration of fasting blood glucose (mMol/L, mean ± SD) (db/db mice; 10 nmol/kg, Day 28): 9.41 ± 0.97 mmol/L
- Glycated hemoglobin (%, mean ± SD) (db/db mice; 10 nmol/kg): 4.71 ± 0.23 %
- Concentration of fasting blood glucose (mMol/L, mean ± SD) (db/db mice; 30 nmol/kg, Day 0): 14.13 ± 1.32 mmol/L
- Concentration of random blood glucose (mMol/L, mean ± SD) (db/db mice; 30 nmol/kg, Day 0): 16.73 ± 1.59 mmol/L
- Concentration of fasting blood glucose (mMol/L, mean ± SD) (db/db mice; 30 nmol/kg, Day 7): 6.21 ± 0.26 mmol/L
- Concentration of random blood glucose (mMol/L, mean ± SD) (db/db mice; 30 nmol/kg, Day 10): 15.88 ± 1.86 mmol/L
- Concentration of fasting blood glucose (mMol/L, mean ± SD) (db/db mice; 30 nmol/kg, Day 14): 6.40 ± 0.57 mmol/L
- Concentration of random blood glucose (mMol/L, mean ± SD) (db/db mice; 30 nmol/kg, Day 17): 17.30 ± 1.17 mmol/L
- Concentration of fasting blood glucose (mMol/L, mean ± SD) (db/db mice; 30 nmol/kg, Day 21): 7.03 ± 0.52 mmol/L
- Concentration of random blood glucose (mMol/L, mean ± SD) (db/db mice; 30 nmol/kg, Day 24): 17.43 ± 1.92 mmol/L
- Concentration of fasting blood glucose (mMol/L, mean ± SD) (db/db mice; 30 nmol/kg, Day 28): 9.68 ± 1.03 mmol/L
- Glycated hemoglobin (%, mean ± SD) (db/db mice; 30 nmol/kg): 4.53 ± 0.17 %
- Concentration of fasting blood glucose (mMol/L, mean ± SD) (db/db mice; 100 nmol/kg, Day 0): 14.67 ± 1.46 mmol/L
- Concentration of random blood glucose (mMol/L, mean ± SD) (db/db mice; 100 nmol/kg, Day 0): 9.11 ± 1.25 mmol/L
- Concentration of fasting blood glucose (mMol/L, mean ± SD) (db/db mice; 100 nmol/kg, Day 7): 5.85 ± 0.33 mmol/L
- Concentration of random blood glucose (mMol/L, mean ± SD) (db/db mice; 100 nmol/kg, Day 10): 12.34 ± 1.12 mmol/L
- Concentration of fasting blood glucose (mMol/L, mean ± SD) (db/db mice; 100 nmol/kg, Day 14): 6.25 ± 0.32 mmol/L
- Concentration of random blood glucose (mMol/L, mean ± SD) (db/db mice; 100 nmol/kg, Day 17): 11.89 ± 1.15 mmol/L
- Concentration of fasting blood glucose (mMol/L, mean ± SD) (db/db mice; 100 nmol/kg, Day 21): 6.13 ± 0.19 mmol/L
- Concentration of random blood glucose (mMol/L, mean ± SD) (db/db mice; 100 nmol/kg, Day 24): 11.51 ± 0.95 mmol/L
- Concentration of fasting blood glucose (mMol/L, mean ± SD) (db/db mice; 100 nmol/kg, Day 28): 7.89 ± 0.41 mmol/L
- Glycated hemoglobin (%, mean ± SD) (db/db mice; 100 nmol/kg, listed as 18#): 3.78%
- Glycated hemoglobin (%, mean ± SD) (db/db mice; 100 nmol/kg, listed as #18): 3.78 ± 0.13 %
- rate of change in body weight ([1]; day 0 (before administration)): 0%
- rate of change in body weight ([1]; day 1 after administration): −5 ± 0.6%
- rate of change in body weight ([1]; day 2 after administration): −6.3 ± 1 ^ %
- rate of change in body weight ([1]; day 3 after administration): −5.8 ± 1.9%
- rate of change in body weight ([1]; day 4 after administration): −9.1 ± 2.1 %
- rate of change in body weight ([1]; day 5 after administration): −10.3 ± 3.2 %
- rate of change in body weight ([1]; day 6 after administration): −10 ± 4.4 %
- rate of change in body weight ([1]; day 7 after administration): −13 ± 5.3 %
- rate of change in body weight ([1]; day 8 after administration): −13.9 ± 6.1 %
- rate of change in body weight ([1]; day 9 after administration): −13.9 ± 7.4 %
- rate of change in body weight ([1]; day 10 after administration): −16.6 ± 7.8 %
- rate of change in body weight ([1]; day 11 after administration): −16.4 ± 8.2 %
- rate of change in body weight ([1]; day 12 after administration): −15.7 ± 8.6 %
- rate of change in body weight ([1]; day 13 after administration): −18.2 ± 8.2 %
- rate of change in body weight ([1]; day 14 after administration): −17.1 ± 7.2 %
- rate of change in body weight ([1]; day 15 after administration): −15.7 ± 7.4 %
- rate of change in body weight ([1]; day 16 after administration): −18.6 ± 7 %
- rate of change in body weight ([1]; day 17 after administration): −18.3 ± 7***^ %
- rate of change in body weight ([1]; day 18 after administration): −17.9 ± 7.1 %
- rate of change in body weight ([1]; day 19 after administration): −20.5 ± 7.5 %
- rate of change in body weight ([1]; day 20 after administration): −19.8 ± 7.4 %
- rate of change in body weight ([1]; day 21 after administration): −17.8 ± 7.3 %
- rate of change in body weight ([1]; day 22 after administration): −19.3 ± 8.2 %
- rate of change in body weight ([1]; day 23 after administration): −19.1 ± 7.6 %
- rate of change in body weight ([1]; day 24 after administration): −17.3 ± 7.4 %
- rate of change in body weight ([1]; day 25 after administration): −19.9 ± 7.6 %
- rate of change in body weight ([1]; day 26 after administration): −18.8 ± 8 %
- rate of change in body weight ([1]; day 27 after administration): −16.1 ± 7.6 %
- rate of change in body weight ([1]; day 28 after administration): −19.2 ± 8***^ %
